# Measurements from patent US7829557B2, “2-heterosubstituted 3-aryl-4H-1-benzopyran-4-ones as novel therapeutics in breast cancer” (The Ohio State University Research Foundation, priority 2006, dated 2010).
# System: MCF-7 cells
# Assay: Dose response / IC50 for effects on proliferation in MCF-7 cells
# Assay type: cell-based, human
# Details: 95% confidence interval; no unit in this head; cell line taken from Example 5 (MCF-7); read-out: IC50 Range
# Procedure: Several members of the combinatorial library that was prepared in accordance with the methods of this invention have been tested for effects on proliferation in MCF-7 cells and MDA-MB-231 cells.
# Dose response studies were performed with compounds from the combinatorial library. Compounds 234, 220, 244, 230, 258, YWK-II-14 and 4-OH-Tamoxifen were performed.
# IC50 ranges for several members of the combinatorial library were within 95% confidence intervals.
row,SMILES,IC50
1,COc1ccc(-c2c(Sc3ccc(O)cc3)oc3cc(OCc4ccccc4)ccc3c2=O)cc1 [Compound 220],2.87 to 7.68 µM
2,COc1ccc(-c2c(Sc3ccc(OCCN4CCCCC4)cc3)oc3cc(O)ccc3c2=O)cc1 [Compound 234],0.36 to 0.92 µM
3,COc1ccc(-c2c(Oc3ccc(OCCN4CCCCC4)cc3)oc3cc(O)ccc3c2=O)cc1 [YWK-II-14],~6.31 µM
4,O=c1c(-c2ccc(O)cc2)c(Sc2ccc(O)cc2)oc2cc(O)ccc12 [Compound 244],7.86 to 15.7 µM
5,"CC/C(=C(\c1ccc(O)cc1)c1ccc(OCCN(C)C)cc1)c1ccccc1 [4-OH Tamoxifen, reference compound]",3.61 to 4.93 µM
6,COc1ccc(-c2c(Sc3ccc(OCCN4CCCCC4)cc3)oc3cc(OCc4ccccc4)ccc3c2=O)cc1 [Compound 230],2.41 to 7.23 µM
7,COc1ccc(-c2c(Oc3ccc(OCCN4CCCCC4)cc3)oc3cc(OCc4ccccc4)ccc3c2=O)cc1 [Compound 258],2.3 to 5.88 µM

# Same assay, conditions: from GraphPad Prism fit; read-out: IC50 (From Program)
row,SMILES,IC50
1,COc1ccc(-c2c(Sc3ccc(O)cc3)oc3cc(OCc4ccccc4)ccc3c2=O)cc1 [Compound 220],4.7 µM
2,COc1ccc(-c2c(Sc3ccc(OCCN4CCCCC4)cc3)oc3cc(O)ccc3c2=O)cc1 [Compound 234],0.58 µM
3,COc1ccc(-c2c(Oc3ccc(OCCN4CCCCC4)cc3)oc3cc(O)ccc3c2=O)cc1 [YWK-II-14],~6.31 µM
4,O=c1c(-c2ccc(O)cc2)c(Sc2ccc(O)cc2)oc2cc(O)ccc12 [Compound 244],11.1 µM
5,"CC/C(=C(\c1ccc(O)cc1)c1ccc(OCCN(C)C)cc1)c1ccccc1 [4-OH Tamoxifen, reference compound]",4.22 µM
6,COc1ccc(-c2c(Sc3ccc(OCCN4CCCCC4)cc3)oc3cc(OCc4ccccc4)ccc3c2=O)cc1 [Compound 230],4.17 µM
7,COc1ccc(-c2c(Oc3ccc(OCCN4CCCCC4)cc3)oc3cc(OCc4ccccc4)ccc3c2=O)cc1 [Compound 258],3.67 µM

# Same assay, conditions: midpoint and half-width of the IC50 range; read-out: IC50 ± ΔIC50
row,SMILES,IC50
1,COc1ccc(-c2c(Sc3ccc(O)cc3)oc3cc(OCc4ccccc4)ccc3c2=O)cc1 [Compound 220],5.28 ± 2.4 µM
2,COc1ccc(-c2c(Sc3ccc(OCCN4CCCCC4)cc3)oc3cc(O)ccc3c2=O)cc1 [Compound 234],0.64 ± 0.28 µM
3,COc1ccc(-c2c(Oc3ccc(OCCN4CCCCC4)cc3)oc3cc(O)ccc3c2=O)cc1 [YWK-II-14],~6.31 µM
4,O=c1c(-c2ccc(O)cc2)c(Sc2ccc(O)cc2)oc2cc(O)ccc12 [Compound 244],11.8 ± 3.94 µM
5,"CC/C(=C(\c1ccc(O)cc1)c1ccc(OCCN(C)C)cc1)c1ccccc1 [4-OH Tamoxifen, reference compound]",4.27 ± 0.66 µM
6,COc1ccc(-c2c(Sc3ccc(OCCN4CCCCC4)cc3)oc3cc(OCc4ccccc4)ccc3c2=O)cc1 [Compound 230],4.82 ± 2.41 µM
7,COc1ccc(-c2c(Oc3ccc(OCCN4CCCCC4)cc3)oc3cc(OCc4ccccc4)ccc3c2=O)cc1 [Compound 258],4.09 ± 1.79 µM

# System: human breast cancer cell lines
# Assay: Suppression of proliferation of human breast cancer cell lines
# Assay type: cell-based
# Details: suppressing proliferation of human breast cancer cell lines; most potent of the series
# Excerpt: Thus, we designed and synthesized several isoflavones containing a basic side chain connected through either an oxygen or a sulfur linkage (synthetic scheme—FIG. 9).
row,SMILES,IC50
1,COc1ccc(-c2c(Sc3ccc(OCCN4CCCCC4)cc3)oc3cc(O)ccc3c2=O)cc1 [Compound 310a],58 nM
